Experimental data as given in PubChem BioAssay AID220 (DTP/NCI, 2004).
Values joined by “and” are separate entries in the source; they are usually repeats but may differ in a detail not shown here. Identical values can stand only once. Records with an inconclusive call do not appear.

System: CD8F1 mice, subcutaneous mammary adenocarcinoma, T/C%
Test: NCI In Vivo Anticancer Drug Screen. Data for tumor model Mammary Adenocarcinoma CD8F1 (subcutaneous) in CD8F1
Details: higher = larger tumour
Description: The antitumor activity of compounds was measured in mice bearing transplantable tumors. Survival or tumor size were measured and the results are expressed as the measurement made in the treated group (T) divided by the measurement made in the vehicle treated control group (C). The tumor model used in this assay is Mammary Adenocarcinoma CD8F1 (subcutaneous) in CD8F1

[1] = endpoint: median tumor weight change, dose: 0.62 mg/kg/injection, schedule: Q01DX001 (ip), vehicle: saline + alcohol
[2] = endpoint: median tumor weight change, dose: 1.25 mg/kg/injection, schedule: Q01DX001 (ip), vehicle: saline + alcohol
[3] = endpoint: median tumor weight change, dose: 2.5 mg/kg/injection, schedule: Q01DX001 (ip), vehicle: saline + alcohol
[4] = endpoint: median tumor weight change, dose: 62.5 mg/kg/injection, schedule: Q01DX001 (ip), vehicle: saline with Tween-80
[5] = endpoint: median tumor weight change, dose: 125.0 mg/kg/injection, schedule: Q01DX001 (ip), vehicle: saline with Tween-80
[6] = endpoint: median tumor weight change, dose: 250.0 mg/kg/injection, schedule: Q01DX001 (ip), vehicle: saline with Tween-80
[7] = endpoint: median tumor weight (est.), dose: 12.5 mg/kg/injection, schedule: Q07DX005 (ip), vehicle: saline with Tween-80
[8] = endpoint: median tumor weight (est.), dose: 25.0 mg/kg/injection, schedule: Q07DX005 (ip), vehicle: saline with Tween-80
[9] = endpoint: median tumor weight (est.), dose: 200.0 mg/kg/injection, schedule: Q07DX005 (ip), vehicle: saline with Tween-80

CCCC(=O)O.CCCC(=O)O.CCCC(=O)O.CCCC(=O)O.[Rh].[Rh]
T/C [1]: 116 % of control | T/C [2]: 81 % of control and 90 % of control | T/C [3]: 56 % of control

Cc1c2ccccc2c(C)c2c1cc(C(=O)O)c1ccccc12
T/C (endpoint: median tumor weight change, dose: 50.0 mg/kg/injection, schedule: Q01DX001 (ip), vehicle: sodium bicarbonate): 83 % of control | T/C (endpoint: median tumor weight change, dose: 100.0 mg/kg/injection, schedule: Q01DX001 (ip), vehicle: sodium bicarbonate): 82 % of control | T/C (endpoint: median tumor weight change, dose: 200.0 mg/kg/injection, schedule: Q01DX001 (ip), vehicle: sodium bicarbonate): 155 % of control | T/C (endpoint: median tumor weight change, dose: 400.0 mg/kg/injection, schedule: Q01DX001 (ip), vehicle: sodium bicarbonate): 153 % of control

CCOC(=O)C1=C(C#N)C2(CCC(OCc3ccccc3)CC2)C(=O)O1 (centres undefined)
T/C (endpoint: median tumor weight change, dose: 125.0 mg/kg/injection, schedule: Q01DX001 (ip), vehicle: suspension in saline): 66 % of control | T/C (endpoint: median tumor weight change, dose: 250.0 mg/kg/injection, schedule: Q01DX001 (ip), vehicle: suspension in saline): 63 % of control | T/C (endpoint: median tumor weight change, dose: 500.0 mg/kg/injection, schedule: Q01DX001 (ip), vehicle: suspension in saline): 50 % of control | T/C (endpoint: median tumor weight change, dose: 1000.0 mg/kg/injection, schedule: Q01DX001 (ip), vehicle: suspension in saline): 24 % of control

Nc1nc(Br)nc2c1ncn2C1CC(O)C(CO)O1 (centres undefined)
T/C (endpoint: median tumor weight change, dose: 7.5 mg/kg/injection, schedule: Q03HX009 (ip), vehicle: saline): 112 % of control | T/C (endpoint: median tumor weight change, dose: 15.0 mg/kg/injection, schedule: Q03HX009 (ip), vehicle: saline): 99 % of control | T/C (endpoint: median tumor weight change, dose: 30.0 mg/kg/injection, schedule: Q03HX009 (ip), vehicle: saline): 51 % of control | T/C (endpoint: median tumor weight change, dose: 60.0 mg/kg/injection, schedule: Q03HX009 (ip), vehicle: saline): 54 % of control | T/C (endpoint: median tumor weight change, dose: 120.0 mg/kg/injection, schedule: Q03HX009 (ip), vehicle: saline): 31 % of control

Nc1ccc(C(OC(=O)c2cc3ccccc3c(Cc3c(O)c(C(=O)OC(c4ccc(N)cc4)(c4ccc(N)cc4)c4ccc(N)cc4)cc4ccccc34)c2O)(c2ccc(N)cc2)c2ccc(N)cc2)cc1
T/C (endpoint: median tumor weight change, dose: 6.25 mg/kg/injection, schedule: Q01DX001 (ip), vehicle: saline with Tween-80): 73 % of control | T/C (endpoint: median tumor weight change, dose: 50.0 mg/kg/injection, schedule: Q01DX001 (ip), vehicle: saline with Tween-80): 97 % of control | T/C [4]: 61 % of control

C=C(C)C(=NC(C)(C)C)Nc1ccccc1
T/C [4]: 92 % of control | T/C [5]: 60 % of control | T/C [6]: 96 % of control

ClC(Cl)(Cl)C1=NCc2nnn(Cc3ccccc3)c2N1
T/C [7]: 102 % of control | T/C [8]: 66 % of control | T/C (endpoint: median tumor weight (est.), dose: 100.0 mg/kg/injection, schedule: Q07DX005 (ip), vehicle: saline with Tween-80): 191 % of control | T/C [9]: 107 % of control | T/C (endpoint: median tumor weight (est.), dose: 400.0 mg/kg/injection, schedule: Q07DX005 (ip), vehicle: saline with Tween-80): 96 % of control

COC1/C=C/C=C(/C)Cc2cc(O)c(Cl)c(c2)N(C)C(=O)CC(OC(=O)C(C)C)C2(C)OC2C(C)C2CC1(O)NC(=O)O2 (centres undefined)
T/C [1]: 49 % of control | T/C [2]: 34 % of control and 54 % of control | T/C [3]: 50 % of control and 70 % of control | T/C (endpoint: median tumor weight change, dose: 5.0 mg/kg/injection, schedule: Q01DX001 (ip), vehicle: saline + alcohol): 54 % of control and 55 % of control | T/C (endpoint: median tumor weight change, dose: 10.0 mg/kg/injection, schedule: Q01DX001 (ip), vehicle: saline + alcohol): 35 % of control and 60 % of control | T/C (endpoint: median tumor weight change, dose: 20.0 mg/kg/injection, schedule: Q01DX001 (ip), vehicle: saline + alcohol): 48 % of control

OCCOCCN1CCN(CCCN2c3ccccc3Sc3ccc(C(F)(F)F)cc32)CC1
T/C (endpoint: median tumor weight (est.), dose: 3.12 mg/kg/injection, schedule: Q07DX005 (ip), vehicle: saline): 53 % of control | T/C (endpoint: median tumor weight (est.), dose: 6.25 mg/kg/injection, schedule: Q07DX005 (ip), vehicle: saline): 97 % of control | T/C (endpoint: median tumor weight (est.), dose: 12.5 mg/kg/injection, schedule: Q07DX005 (ip), vehicle: saline): 95 % of control | T/C (endpoint: median tumor weight (est.), dose: 25.0 mg/kg/injection, schedule: Q07DX005 (ip), vehicle: saline): 71 % of control | T/C (endpoint: median tumor weight (est.), dose: 50.0 mg/kg/injection, schedule: Q07DX005 (ip), vehicle: saline): 97 % of control

CCc1ccc(C2=C(O)C(=O)C(c3ccc(CC)cc3)=C(O)C2=O)cc1
T/C (endpoint: median tumor weight change, dose: 16.0 mg/kg/injection, schedule: Q01DX001 (ip), vehicle: saline with Tween-80): 88 % of control | T/C (endpoint: median tumor weight change, dose: 31.0 mg/kg/injection, schedule: Q01DX001 (ip), vehicle: saline with Tween-80): 107 % of control | T/C (endpoint: median tumor weight change, dose: 62.0 mg/kg/injection, schedule: Q01DX001 (ip), vehicle: saline with Tween-80): 92 % of control | T/C [5]: 61 % of control

CO[C@H]1C[C@](C)(O)Cc2cc3c(c(O)c21)C(=O)c1c(O)cc2c(c1C3=O)O[C@@H]1O[C@@]2(C)[C@H](O)[C@@H](N(C)C)[C@@H]1O
T/C (endpoint: median tumor weight (est.), dose: 7.0 mg/kg/injection, schedule: Q07DX005 (ip), vehicle: saline with Tween-80): 62 % of control | T/C (endpoint: median tumor weight (est.), dose: 11.0 mg/kg/injection, schedule: Q07DX005 (ip), vehicle: saline with Tween-80): 60 % of control | T/C (endpoint: median tumor weight (est.), dose: 16.0 mg/kg/injection, schedule: Q07DX005 (ip), vehicle: saline with Tween-80): 75 % of control | T/C (endpoint: median tumor weight (est.), dose: 24.0 mg/kg/injection, schedule: Q07DX005 (ip), vehicle: saline with Tween-80): 64 % of control | T/C (endpoint: median tumor weight (est.), dose: 48.0 mg/kg/injection, schedule: Q07DX005 (ip), vehicle: saline with Tween-80): 10 % of control

CO[C@H](/C(C)=C/C=C/C(C)=C/c1coc(C)n1)[C@H](C)[C@H]1C[C@@H](O)[C@@]2(C)O[C@H]2/C=C/[C@@H](C)[C@@H]2C[C@@H](CC(=O)O2)C[C@H]2O[C@@H]2C(=O)O1
T/C (endpoint: median tumor weight change, dose: 0.06 mg/kg/injection, schedule: Q01DX001 (ip), vehicle: Klucel (hydroxypropylcellulose) (HPC)): 175 % of control | T/C (endpoint: median tumor weight change, dose: 0.25 mg/kg/injection, schedule: Q01DX001 (ip), vehicle: Klucel (hydroxypropylcellulose) (HPC)): 83 % of control | T/C (endpoint: median tumor weight change, dose: 0.5 mg/kg/injection, schedule: Q01DX001 (ip), vehicle: Klucel (hydroxypropylcellulose) (HPC)): 110 % of control | T/C (endpoint: median tumor weight change, dose: 1.0 mg/kg/injection, schedule: Q01DX001 (ip), vehicle: Klucel (hydroxypropylcellulose) (HPC)): 101 % of control

O=S(=O)(c1ccccc1)N1CN2CCN(C2)C1
T/C [8]: 55 % of control and 72 % of control | T/C [9]: 66 % of control and 79 % of control

N#CC(C#N)=C/C=C/c1cccc([N+](=O)[O-])c1
T/C (endpoint: median tumor weight (est.), dose: 3.12 mg/kg/injection, schedule: Q07DX005 (ip), vehicle: Klucel (hydroxypropylcellulose) (HPC)): 122 % of control | T/C (endpoint: median tumor weight (est.), dose: 6.25 mg/kg/injection, schedule: Q07DX005 (ip), vehicle: Klucel (hydroxypropylcellulose) (HPC)): 239 % of control | T/C (endpoint: median tumor weight (est.), dose: 12.5 mg/kg/injection, schedule: Q07DX005 (ip), vehicle: Klucel (hydroxypropylcellulose) (HPC)): 169 % of control | T/C (endpoint: median tumor weight (est.), dose: 25.0 mg/kg/injection, schedule: Q07DX005 (ip), vehicle: Klucel (hydroxypropylcellulose) (HPC)): 152 % of control

Cc1c2ccccc2cc2cccc[n+]12
T/C (endpoint: median tumor weight change, dose: 20.0 mg/kg/injection, schedule: Q01DX001 (ip), vehicle: saline): 116 % of control | T/C (endpoint: median tumor weight change, dose: 25.0 mg/kg/injection, schedule: Q01DX001 (ip), vehicle: saline): 123 % of control | T/C (endpoint: median tumor weight change, dose: 40.0 mg/kg/injection, schedule: Q01DX001 (ip), vehicle: saline): 119 % of control | T/C (endpoint: median tumor weight change, dose: 50.0 mg/kg/injection, schedule: Q01DX001 (ip), vehicle: saline): 59 % of control

COc1ccc([I+]c2cccc(Cl)c2)cc1Cl
T/C (endpoint: median tumor weight (est.), dose: 3.12 mg/kg/injection, schedule: Q07DX005 (ip), vehicle: saline with Tween-80): 189 % of control | T/C [7]: 34 % of control | T/C (endpoint: median tumor weight (est.), dose: 50.0 mg/kg/injection, schedule: Q07DX005 (ip), vehicle: saline with Tween-80): 111 % of control

COc1cccc2c1C(=O)c1c(O)c3c(c(O)c1C2=O)C[C@@](O)(C(C)=O)C[C@@H]3OC1CC(N)C(O)C(C)O1 (some centres undefined)
T/C (endpoint: median tumor weight (est.), dose: 0.5 mg/kg/injection, schedule: Q07DX005 (ip), vehicle: water): 41 % of control | T/C (endpoint: median tumor weight (est.), dose: 1.0 mg/kg/injection, schedule: Q07DX005 (ip), vehicle: water): 43 % of control | T/C (endpoint: median tumor weight (est.), dose: 1.2 mg/kg/injection, schedule: Q07DX005 (ip), vehicle: saline): 91 % of control | T/C (endpoint: median tumor weight (est.), dose: 1.78 mg/kg/injection, schedule: Q07DX005 (ip), vehicle: water): 43 % of control | T/C (endpoint: median tumor weight (est.), dose: 1.8 mg/kg/injection, schedule: Q07DX005 (ip), vehicle: saline): 72 % of control | T/C (endpoint: median tumor weight (est.), dose: 2.0 mg/kg/injection, schedule: Q07DX005 (ip), vehicle: water): 38 % of control | T/C (endpoint: median tumor weight (est.), dose: 2.67 mg/kg/injection, schedule: Q07DX005 (ip), vehicle: water): 20 % of control | T/C (endpoint: median tumor weight (est.), dose: 2.7 mg/kg/injection, schedule: Q07DX005 (ip), vehicle: saline): 61 % of control

O=c1[nH]cccc1O
T/C [5]: 60 % of control | T/C [6]: 35 % of control
